These are literature values, as cited in patent US12409155B1, “Ready to use LET formulations” (QuVa Pharma, Inc., priority 2021, dated 2025).

The structures appear in SMILES notation.

For this data set the following is noted: Handbook.

Turning to `O=C(O)CC(O)(CC(=O)O)C(=O)O` [citric acid], the pKa2 was 4.76.
